These results are taken from US20130190248A1, “S[…] ANALOGS” (AGENSYS, INC., priority 2011, published 2013).

This test has as its system SW780 human bladder cancer cells. In words: In vivo efficacy in subcutaneously established human bladder cancer cell line SW780 implanted in ICR SCID mice. Particulars: QW for 3 weeks, SW780 xenograft, male ICR SCID mice. The method, then: Determination of In Vivo Efficacy of Test Compounds: Efficacy Evaluation in Subcutaneously Established Human Bladder Cancer Cell Line SW780 Implanted in ICR SCID Mice
For animal in vivo studies, the test compounds were diluted with 20 mM Histidine, 5% Sucrose, pH 6 with 15% DMSO. Male ICR SCID mice (Taconic Farm, Hudson, N.Y.) were housed in standard rodent micro isolator cages. Environment controls for the animal rooms were set to maintain a temperature between 68-75° F., a relative humidity between 30% to 70%, and an approximate 12 h light/12 h dark cycle. Food and water was provided ad libitum. After 72 h of acclimatization, the mice were implanted with SW780 human bladder cancer cells (2×10^6 cells/mouse), suspended in 50% complete cultrex (Trevigen, Inc.) mixed with 1×PBS (Gibco), and the tumor growth rate was monitored. When the average tumor volume reached ˜200 mm^3, tumors were size-matched and mice were randomized to treatment groups (n=8 or 10). The tumor-bearing mice were treated i.v. with Vehicle or test compound at 2 or 4 mg/kg (mpk) on a QW dosing schedule for 3 weeks. Tumor volume was assessed twice weekly using caliper measurement.
A general note: A xenograft is tissue or cells of one species grown in another, often human tumour cells in immunodeficient mice.

Structures are written as SMILES. Where a SMILES comes first, the peptide text is derived from it. [ ]: non-standard residue; d: D form. The star is where a group is joined. Dolaproine = CO[C@@H]([C@@H]1CCCN1)[C@@H](C)C(=O)O; Dil = CC[C@H](C)[C@H](NC)[C@@H](CC(=O)O)OC; NH(2-(2-pyridyl)ethyl) = c1ccc(CCN*)nc1; NMeV = CN[C@H](C(=O)O)C(C)C

Turning to `CC[C@H](C)[C@@H]([C@@H](CC(=O)N1CCC[C@H]1[C@H](OC)[C@@H](C)C(=O)NCCc1ccccn1)OC)N(C)C(=O)[C@@H](NC(=O)[C@@H](NC)C(C)C)C(C)C` [Example 1, (S)—N-((3R,4S,5S)-3-Methoxy-1-((S)-2-((1R,2R)-1-methoxy-2-methyl-3-oxo-3-((2-(pyridin-2-yl)ethyl)amino)propyl)pyrrolidin-1-yl)-5-methyl-1-oxoheptan-4-yl)-N,3-dimethyl-2-((S)-3-methyl-2-(methylamino)butanamido)butanamide] (H-[NMeV]V[Dil][Dolaproine]-{NH(2-(2-pyridyl)ethyl)}), the “effect on tumor growth (mean tumor volume versus days of treatment)” value (2 mg/kg i.v.) is on record as “tumor stasis” and the “effect on tumor growth (mean tumor volume versus days of treatment)” value (4 mg/kg i.v.) is “tumor stasis”.
Regarding `CC[C@H](C)[C@@H]([C@@H](CC(=O)N1CCC[C@H]1[C@H](OC)[C@@H](C)C(=O)NCCc1ccc(N)cc1)OC)N(C)C(=O)[C@@H](NC(=O)[C@H](C(C)C)N(C)C)C(C)C` [Example 22, (S)—N-((3R,4S,5S)-1-((S)-2-((1R,2R)-3-((4-aminophenethyl)amino)-1-methoxy-2-methyl-3-oxopropyl)pyrrolidin-1-yl)-3-methoxy-5-methyl-1-oxoheptan-4-yl)-2-((S)-2-(dimethylamino)-3-methylbutanamido)-N,3-dimethylbutanamide], the “effect on tumor growth (mean tumor volume versus days of treatment)” value (2 mg/kg i.v.) is on record as “tumor stasis”.
